Measured values as given in PMC8595653, “Activation of specific bitter taste receptors by olive oil phenolics and secoiridoids” (Scientific Reports, 2021).
“Also recorded” adds a separate entry of the source.

What was measured:
Type in all cases: cell-based
TAS2R8 = molecular target: T1, TAS2R8 (Homo sapiens, UniProt Q9NYW2); assay: Calcium mobilization functional assay, TAS2R8 co-expressed with Gα16-gust44 and GCaMP in HEK293E cells; conditions: for times more potent than oleuropein: potency of bitter receptor activation relative to oleuropein (1); for potency and efficacy on TAS2R8 in words: concentration-response experiments, maximal concentration 10 mM for oleuropein
T1 construct: first 45 amino acids of rat somatostatin type 3 receptor (SSTR3) export tag (N); expressed in transfected cells; host or cells: HEK293E
T1 sequence (Q9NYW2 1-309): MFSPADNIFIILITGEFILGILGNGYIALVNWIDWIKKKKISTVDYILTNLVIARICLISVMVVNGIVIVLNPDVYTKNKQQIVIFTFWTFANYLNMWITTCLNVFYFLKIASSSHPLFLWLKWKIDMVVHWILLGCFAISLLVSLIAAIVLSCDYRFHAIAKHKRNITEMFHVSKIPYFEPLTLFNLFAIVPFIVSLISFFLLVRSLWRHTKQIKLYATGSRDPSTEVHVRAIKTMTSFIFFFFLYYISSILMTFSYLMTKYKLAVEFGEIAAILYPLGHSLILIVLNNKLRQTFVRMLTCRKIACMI
Experimental: (§1) All constructs were confirmed by DNA sequencing.
(§2) Data from single dose experiments were collected as duplicates. […] Data represent mean ± SD.
(§3) To characterize the bitterness of olive oil phenolic compounds, we performed calcium mobilization experiments. The 25 bitter taste receptors, G protein chimera (Gα16-gus44), and the GCaMP calcium sensor[68] were transiently expressed in HEK293E cells. Twelve olive oil phenolic compounds (Fig. 1) were tested for bitter taster receptor activation (Fig. 3). […] Ligstroside aglycon, and Oleuropein aglycon activated TAS2R1, TAS2R8 and TAS2R14 receptors. To validate the single dose scanning results, we performed concentration–response experiments for all the compounds toward receptors TAS2R1, TAS2R8, and TAS2R14 that produced the most significant responses (Fig. 4).

TAS2R1 = molecular target: T2, TAS2R1 (Homo sapiens, UniProt Q9NYW7); assay: Calcium mobilization functional assay, TAS2R1 co-expressed with Gα16-gust44 and GCaMP in HEK293E cells
T2 construct: first 45 amino acids of rat somatostatin type 3 receptor (SSTR3) export tag (N); expressed in transfected cells; host or cells: HEK293E
T2 sequence (Q9NYW7 1-299): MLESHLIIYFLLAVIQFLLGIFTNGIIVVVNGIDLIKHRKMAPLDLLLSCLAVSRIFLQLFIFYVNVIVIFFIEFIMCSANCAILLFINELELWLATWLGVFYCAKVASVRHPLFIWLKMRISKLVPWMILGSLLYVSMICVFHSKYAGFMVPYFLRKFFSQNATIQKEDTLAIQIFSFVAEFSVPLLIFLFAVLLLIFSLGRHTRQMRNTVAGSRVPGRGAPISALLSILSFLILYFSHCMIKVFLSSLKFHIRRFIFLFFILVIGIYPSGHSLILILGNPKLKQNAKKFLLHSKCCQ
Experimental: as §1, §2, §3

TAS2R14 = molecular target: T3, TAS2R14 (Homo sapiens, UniProt Q9NYV8); assay: Calcium mobilization functional assay, TAS2R14 co-expressed with Gα16-gust44 and GCaMP in HEK293E cells
T3 construct: first 45 amino acids of rat somatostatin type 3 receptor (SSTR3) export tag (N); expressed in transfected cells; host or cells: HEK293E
T3 sequence (Q9NYV8 1-317): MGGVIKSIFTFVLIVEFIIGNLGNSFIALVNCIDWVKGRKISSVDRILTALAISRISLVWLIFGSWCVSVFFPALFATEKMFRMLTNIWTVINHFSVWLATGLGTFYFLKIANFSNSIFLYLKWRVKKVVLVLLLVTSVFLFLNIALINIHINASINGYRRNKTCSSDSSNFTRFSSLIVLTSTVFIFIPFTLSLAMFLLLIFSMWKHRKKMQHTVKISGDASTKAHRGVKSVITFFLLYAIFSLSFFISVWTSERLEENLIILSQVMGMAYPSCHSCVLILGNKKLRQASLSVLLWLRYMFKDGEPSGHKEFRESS
Experimental: as §1, §2, §3

25 human TAS2Rs = assay: Single dose scanning of phenolic compounds on the 25 bitter taste receptors (calcium mobilization, HEK293E); conditions: single dose 300 µM, 25 TAS2Rs, N = 2
Experimental: as §1, §2, §3
Figure 3 Phenolic compound bitter taste activity tests on hTAS2Rs. Relative fluorescence signals caused by phenolic compound activation of the receptors and the empty vector as a negative control. The concentration of the compounds used was [300 µM], except for Ligstroside aglycon and Oleuropein aglycon [200 µM], oleuropein that was [3 mM]. The asterisks indicate significant differences tested by one-way ANOVA (***p < 0.0001) (N = 2). Data represent mean ± SD.

[1] = HEK293E, normalized to the highest response of TAS2R8 to oleuropein aglycon (100%), N = 3

COC(=O)C1=COC(C)C(C=O)C1CC(=O)OCCc1ccc(O)c(O)c1 (single isomer, unassigned; isomer a) [Oleuropein aglycon closed-type (5a), oleuropein aglycon closed-type (isomer A)]
times more potent than oleuropein (TAS2R8): ~50 times

COC(=O)C1=COC(C)C(C=O)C1CC(=O)OCCc1ccc(O)c(O)c1 (single isomer, unassigned; isomer b) [Oleuropein aglycon (5b), oleuropein aglycon closed-type (isomer B)]
Emax (TAS2R1; [1]): 67.6%
EC50 (TAS2R1; dose-response, N = 3, HEK293E): 142 µM
activation of TAS2R1 (TAS2R1; single dose 200 µM): activated
Emax (TAS2R8; [1]): 100%
EC50 (TAS2R8; dose-response, N = 3, HEK293E): 57.3 µM
times more potent than oleuropein (TAS2R8): ~50 times
activation of TAS2R8 (TAS2R8; single dose 200 µM): activated
potency and efficacy on TAS2R14 in words (TAS2R14; concentration-response experiments, compared with ligstroside aglycon): even less potent and efficacious
activation of TAS2R14 (TAS2R14; single dose 200 µM): activated

COC(=O)C1=COC(C)C(C=O)C1CC(=O)O (stereo not shown) [Elenolic acid, elenolic acid]
potency and efficacy on TAS2R8 in words (TAS2R8): activated weakly and less potently; also recorded: activated TAS2R8 with lower potency
activation of TAS2R8 over background (TAS2R8; single dose 300 µM): activate
activation of TAS2R8 over background (TAS2R8; single dose 300 µM, listed as elenolic acid): activated significantly

OCCc1ccc(O)c(O)c1 [Hydroxytyrosol, hydroxytyrosol]
activation of any TAS2R (25 human TAS2Rs): failed to activate any bitter receptor

C/C=C(/C=O)[C@@H](CC=O)CC(=O)OCCc1ccc(O)c(O)c1 [Oleacein, oleacein]
activation of any TAS2R (25 human TAS2Rs): did not activate any TAS2Rs; also recorded: did not show any activation of bitter receptors; also recorded: failed to activate any TAS2Rs

C/C=C(/C=O)[C@@H](CC(=O)O)CC(=O)OCCc1ccc(O)cc1 [Oleocanthalic acid, oleocanthalic acid]
potency and efficacy on TAS2R8 in words (TAS2R8): activated TAS2R8 with lower potency
potency and efficacy on TAS2R8 in words (TAS2R8; listed as oleocanthalic acid): activated weakly and less potently
activation of TAS2R8 over background (TAS2R8; single dose 300 µM): activate
activation of TAS2R8 over background (TAS2R8; single dose 300 µM, listed as oleocanthalic acid): activated significantly

C/C=C(/C=O)C(CC(=O)OCCc1ccc(O)c(O)c1)/C(=C/O)C(=O)OC (stereo not shown) [Oleomissional, oleomissional]
potency and efficacy on TAS2R8 in words (TAS2R8): activated weakly and less potently
potency and efficacy on TAS2R8 in words (TAS2R8; listed as oleomissinal): activated TAS2R8 with lower potency
activation of TAS2R8 over background (TAS2R8; single dose 300 µM): activate
activation of TAS2R8 over background (TAS2R8; single dose 300 µM, listed as oleomissional): activated significantly

CC=C1C(OC2OC(CO)C(O)C(O)C2O)OC=C(C(=O)OC)C1CC(=O)O (stereo not shown) [Oleoside-methylester, oleoside-11-methylester]
activation of any TAS2R (25 human TAS2Rs; listed as oleoside-11-methyl ester): failed to activate any bitter receptor
activation of any TAS2R (25 human TAS2Rs; listed as oleoside-methylester): did not activate any TAS2Rs; also recorded: failed to activate any TAS2Rs

C/C=C1/[C@H](O[C@@H]2O[C@H](CO)[C@@H](O)[C@H](O)[C@H]2O)OC=C(C(=O)OC)[C@H]1CC(=O)OCCc1ccc(O)c(O)c1 [Oleuropein, oleuropein]
potency lower compared to the aglycons (TAS2R8; TAS2R8): 50 fold
potency and efficacy on TAS2R8 in words (TAS2R8): high efficacy on TAS2R8 but very low potency and did not reach saturation
activation of TAS2R8 over background (TAS2R8; single dose 3 mM): activate; also recorded: activated TAS2R8 only
activation of TAS2R8 over background (TAS2R8; single dose 3 mM, listed as oleuropein): activated significantly

OCCc1ccc(O)cc1 [Tyrosol, tyrosol]
activation of any TAS2R (25 human TAS2Rs): did not activate any TAS2Rs; also recorded: failed to activate any bitter receptor; also recorded: failed to activate any TAS2Rs

O=C(O)c1ccccc1Nc1cccc(C(F)(F)F)c1 [flufenamic acid, reference compound]
activation of TAS2R14 (TAS2R14; 0.3 mM, versus empty pcDNA vector): activated
